Numbers after ± are expanded uncertainties.
What was measured:
[1] = 298.15 K; 101.33 kPa; Liquid; Vibrating tube method
[2] = refractive index (Na D-line) (dimensionless); settings: 298.15 K; 101.33 kPa; Liquid; Standard Abbe refractometry

| mass density [1] [kg/m3] | refractive index [2] | SMILES |
| --- | --- | --- |
| 799.62 ± 0.11 | 1.3836 ± 0.0005 | CCCO [propan-1-ol] |
| 782.7 ± 0.15 | 1.3754 ± 0.0005 | CC(C)O [propan-2-ol] |
| – | 1.3325 ± 0.0005 | O [water] |

| SMILES | mass density [1] [kg/m3] | refractive index [2] |
| --- | --- | --- |
| CC(=O)CC(C)C [4-methylpentan-2-one] | 795.94 ± 0.14 | 1.3936 ± 0.0005 |

Reference: the NIST ThermoML archive (doi:10.1016/j.fluid.2013.10.034)
